Measurements: patent US10508120B2, “TYK2 inhibitors and uses thereof” (Nimbus Lakshmi, Inc., priority 2017, dated 2019)

Columns and labels:
[1] = target: JAK2/JAK2 homdimeric complex (Homo sapiens (Human), UniProt O60674); assay: GM-CSF Induced pSTAT5 in Human PBMC; type: cell-based; conditions: GM-CSF 5 ng/mL for 20 minutes, pSTAT5 by MSD, read-out: PBMC_GMCSF_pSTAT5 IC50
Tyk2 kinase domain (DH1) = Tyk2 kinase domain (DH1) (Homo sapiens (Human), UniProt P29597); assay: Tyk2 Radioactive Kinase Assay; type: biochemical; conditions: 10 μM compound, 10 μM ATP; for inhibition at 10 µM: read-out: Tyk2 JH1% Inhibition @ 10 μM
Sequence of Tyk2 kinase domain (DH1) (P29597 897-1176): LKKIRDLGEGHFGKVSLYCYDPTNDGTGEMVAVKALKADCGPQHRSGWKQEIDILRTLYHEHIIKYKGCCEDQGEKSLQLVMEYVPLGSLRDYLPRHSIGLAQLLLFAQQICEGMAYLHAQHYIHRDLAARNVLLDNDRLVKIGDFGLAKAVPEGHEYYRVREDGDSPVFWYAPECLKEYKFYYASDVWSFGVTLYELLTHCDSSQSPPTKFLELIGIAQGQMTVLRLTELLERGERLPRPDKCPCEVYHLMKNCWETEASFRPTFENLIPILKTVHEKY
How it was run: (§1)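 Values are single-concentration percent inhibition figures. They were obtained with 10 μM compound in a radioactivity-based kinase assay run separately on each enzyme.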

[2] = target: Tyk2/JAK2 (heterodimeric complex) (Homo sapiens (Human), UniProt P29597); assay: IL-12 Induced pSTAT4 in Human PBMC; type: cell-based; conditions: 1.7 ng/mL IL-12
Sequence of Tyk2/JAK2 (heterodimeric complex) (P29597 whole entry, other chains not shown): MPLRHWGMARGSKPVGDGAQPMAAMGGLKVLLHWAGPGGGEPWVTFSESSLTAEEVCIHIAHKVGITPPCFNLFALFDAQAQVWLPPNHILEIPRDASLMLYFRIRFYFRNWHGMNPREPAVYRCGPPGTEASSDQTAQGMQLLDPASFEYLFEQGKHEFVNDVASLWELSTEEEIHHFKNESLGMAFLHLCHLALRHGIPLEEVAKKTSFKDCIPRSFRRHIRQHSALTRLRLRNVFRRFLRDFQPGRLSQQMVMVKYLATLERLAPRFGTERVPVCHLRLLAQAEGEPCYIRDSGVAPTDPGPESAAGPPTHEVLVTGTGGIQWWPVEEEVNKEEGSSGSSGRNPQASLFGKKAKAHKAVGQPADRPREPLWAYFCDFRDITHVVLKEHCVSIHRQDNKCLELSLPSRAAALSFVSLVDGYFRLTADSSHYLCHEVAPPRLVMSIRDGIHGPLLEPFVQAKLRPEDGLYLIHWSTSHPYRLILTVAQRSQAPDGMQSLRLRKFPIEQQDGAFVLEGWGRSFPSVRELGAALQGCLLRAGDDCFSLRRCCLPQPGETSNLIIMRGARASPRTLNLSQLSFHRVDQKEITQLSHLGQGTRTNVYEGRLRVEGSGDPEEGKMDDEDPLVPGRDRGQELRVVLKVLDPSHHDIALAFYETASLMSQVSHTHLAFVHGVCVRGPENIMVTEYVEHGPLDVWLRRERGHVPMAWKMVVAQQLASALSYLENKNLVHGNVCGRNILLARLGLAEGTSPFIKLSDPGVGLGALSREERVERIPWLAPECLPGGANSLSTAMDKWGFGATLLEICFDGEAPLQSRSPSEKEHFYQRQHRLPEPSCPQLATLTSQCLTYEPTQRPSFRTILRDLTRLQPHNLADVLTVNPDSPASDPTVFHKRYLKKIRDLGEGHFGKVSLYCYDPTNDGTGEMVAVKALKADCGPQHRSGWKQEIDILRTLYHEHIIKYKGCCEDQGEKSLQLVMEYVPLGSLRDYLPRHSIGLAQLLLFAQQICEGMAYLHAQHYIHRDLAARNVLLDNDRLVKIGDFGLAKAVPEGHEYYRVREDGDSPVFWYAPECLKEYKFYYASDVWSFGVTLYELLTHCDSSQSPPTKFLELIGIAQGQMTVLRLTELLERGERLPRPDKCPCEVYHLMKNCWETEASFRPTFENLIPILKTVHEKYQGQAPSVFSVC
Excerpt: The IL-12 Induced pSTAT4 assay evaluates the inhibition of IL-12 induced STAT4 phophorylation mediated by Tyk2/JAK2 (heterodimeric complex).

[3] = target: human TYK2 (JH2domain-pseudokinase) (Homo sapiens (Human), UniProt P29597); assay: TYK2 JH2 Domain Binding Assay (KINOMEscan)
Sequence of human TYK2 (JH2domain-pseudokinase) (P29597 556-888): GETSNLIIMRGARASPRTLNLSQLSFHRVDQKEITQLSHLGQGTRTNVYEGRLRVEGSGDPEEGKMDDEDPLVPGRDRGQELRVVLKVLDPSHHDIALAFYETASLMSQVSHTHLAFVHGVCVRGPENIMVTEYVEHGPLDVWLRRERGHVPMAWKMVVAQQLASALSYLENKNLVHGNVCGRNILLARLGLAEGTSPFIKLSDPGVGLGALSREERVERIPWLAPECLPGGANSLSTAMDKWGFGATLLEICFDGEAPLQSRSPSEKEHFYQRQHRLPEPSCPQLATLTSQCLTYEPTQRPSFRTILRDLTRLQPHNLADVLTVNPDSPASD
How it was run: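 The construct was human TYK2 G556–D888 fused to the NFkB DNA-binding domain and expressed in HEK293 cells; unpurified extract was incubated with compound and liganded beads for 1 hour at room temperature.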

JAK2 kinase domain (JH1) = JAK2 kinase domain (JH1) (Homo sapiens (Human), UniProt O60674); assay: JAK2 Radioactive Kinase Assay; type: biochemical; conditions: 10 μM compound, 10 μM ATP; for inhibition at 10 µM: read-out: JAK2 JH1% Inhibition @ 10 μM
Sequence of JAK2 kinase domain (JH1) (O60674 849-1124): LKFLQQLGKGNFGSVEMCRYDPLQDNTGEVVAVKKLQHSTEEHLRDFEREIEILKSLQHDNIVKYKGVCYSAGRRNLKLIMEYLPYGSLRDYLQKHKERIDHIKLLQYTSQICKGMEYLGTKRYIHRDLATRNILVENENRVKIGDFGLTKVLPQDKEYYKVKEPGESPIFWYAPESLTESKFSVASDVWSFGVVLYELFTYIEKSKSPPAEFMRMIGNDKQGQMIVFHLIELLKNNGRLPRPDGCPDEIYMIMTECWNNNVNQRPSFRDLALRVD
How it was run: as §1

Sequence of JAK2/JAK2 homdimeric complex (O60674 whole entry, the tested form may be a part): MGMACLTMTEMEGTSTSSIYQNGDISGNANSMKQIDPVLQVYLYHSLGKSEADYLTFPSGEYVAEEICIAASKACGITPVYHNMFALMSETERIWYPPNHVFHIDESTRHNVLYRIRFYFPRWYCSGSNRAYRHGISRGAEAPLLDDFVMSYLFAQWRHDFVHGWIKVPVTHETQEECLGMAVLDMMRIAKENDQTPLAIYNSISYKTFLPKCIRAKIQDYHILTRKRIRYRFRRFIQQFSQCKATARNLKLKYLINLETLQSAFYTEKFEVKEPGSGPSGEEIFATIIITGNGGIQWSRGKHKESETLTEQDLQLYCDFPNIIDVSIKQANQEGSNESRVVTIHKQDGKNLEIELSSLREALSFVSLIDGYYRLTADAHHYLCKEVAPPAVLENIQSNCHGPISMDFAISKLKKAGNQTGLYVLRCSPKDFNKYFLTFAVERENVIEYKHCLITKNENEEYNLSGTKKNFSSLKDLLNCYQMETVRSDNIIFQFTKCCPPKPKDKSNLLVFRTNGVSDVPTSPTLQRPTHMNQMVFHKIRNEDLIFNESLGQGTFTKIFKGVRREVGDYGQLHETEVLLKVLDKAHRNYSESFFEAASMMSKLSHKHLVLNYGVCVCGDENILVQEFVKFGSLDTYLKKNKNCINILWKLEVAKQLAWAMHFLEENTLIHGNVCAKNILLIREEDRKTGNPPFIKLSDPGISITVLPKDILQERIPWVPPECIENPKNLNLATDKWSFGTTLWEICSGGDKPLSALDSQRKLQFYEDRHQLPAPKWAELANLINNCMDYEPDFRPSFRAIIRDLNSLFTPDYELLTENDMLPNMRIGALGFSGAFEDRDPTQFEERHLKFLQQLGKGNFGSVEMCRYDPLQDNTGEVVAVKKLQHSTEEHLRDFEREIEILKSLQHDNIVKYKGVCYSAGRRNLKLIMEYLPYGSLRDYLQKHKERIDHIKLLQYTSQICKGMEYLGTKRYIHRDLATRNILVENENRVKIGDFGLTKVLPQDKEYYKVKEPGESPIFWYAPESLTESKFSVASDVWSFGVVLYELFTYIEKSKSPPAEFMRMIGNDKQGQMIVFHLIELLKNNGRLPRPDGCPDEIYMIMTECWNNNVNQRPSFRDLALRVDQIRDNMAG
Sequence of JAK2/JAK2 homdimeric complex (P32927 17-897 partner): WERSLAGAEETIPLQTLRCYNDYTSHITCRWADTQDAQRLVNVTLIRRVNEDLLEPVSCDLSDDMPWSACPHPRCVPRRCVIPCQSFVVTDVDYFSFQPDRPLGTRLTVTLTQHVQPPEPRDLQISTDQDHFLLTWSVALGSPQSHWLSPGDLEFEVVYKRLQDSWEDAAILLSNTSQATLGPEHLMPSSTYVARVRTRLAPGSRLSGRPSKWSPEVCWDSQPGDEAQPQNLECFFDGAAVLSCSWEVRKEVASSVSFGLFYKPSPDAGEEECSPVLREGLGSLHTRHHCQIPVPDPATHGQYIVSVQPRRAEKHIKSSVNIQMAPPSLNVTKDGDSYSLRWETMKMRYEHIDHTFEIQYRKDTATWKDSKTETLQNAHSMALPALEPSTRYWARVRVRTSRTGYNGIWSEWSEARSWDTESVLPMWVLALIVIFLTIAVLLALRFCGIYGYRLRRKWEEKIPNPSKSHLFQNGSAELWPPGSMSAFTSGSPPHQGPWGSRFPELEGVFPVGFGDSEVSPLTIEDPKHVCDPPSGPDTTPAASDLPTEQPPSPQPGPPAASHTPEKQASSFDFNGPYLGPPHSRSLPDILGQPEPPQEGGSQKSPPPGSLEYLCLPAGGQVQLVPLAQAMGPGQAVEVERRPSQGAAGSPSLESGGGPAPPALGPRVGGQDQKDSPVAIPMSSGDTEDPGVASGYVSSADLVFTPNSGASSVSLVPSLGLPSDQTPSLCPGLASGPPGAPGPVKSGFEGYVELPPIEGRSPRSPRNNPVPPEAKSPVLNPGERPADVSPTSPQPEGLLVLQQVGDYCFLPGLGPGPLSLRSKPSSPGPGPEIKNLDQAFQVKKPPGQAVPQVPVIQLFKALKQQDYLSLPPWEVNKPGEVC

Row | IC50 [1] [nM] | inhibition at 10 µM (Tyk2 kinase domain (DH1)) [%] | IC50 [2] [nM] | Kd [3] [nM] | inhibition at 10 µM (JAK2 kinase domain (JH1)) [%] | SMILES | Tyk2 JH1% Inhibition @ 10 μM (Tyk2 kinase domain (DH1)) | JAK2 JH1% Inhibition @ 10 μM (JAK2 kinase domain (JH1))
1 | > 12500 | < 50 | < 100 | < 0.2 | < 50 | CNc1cc(Nc2cc(Cl)cn(C3CCN(C)CC3)c2=O)nc2c(C(=O)NC3CC3)cnn12 [I-883] |  | 
2 | > 50000 | < 50 | < 100 | < 0.2 | < 50 | CNC(=O)c1occc1Nc1cc(NC)n2ncc(C(=O)NC3CC3)c2n1 [I-887] |  | 
3 | > 50000 | < 50 | < 100 | < 0.2 | < 50 | CNC(=O)c1occc1Nc1cc(NC)n2ncc(C(=O)N[C@@H]3C[C@@H]3F)c2n1 [I-888, N-((1R,2S)-2-fluorocyclopropyl)-7-(methylamino)-5-((2-(methylcarbamoyl)furan-3-yl)amino)pyrazolo[1,5-a]pyrimidine-3-carboxamide] |  | 
4 | > 50000 | < 50 | < 100 | < 0.2 | < 50 | CNc1cc(Nc2cccn3ccnc23)nc2c(C(=O)NC3CC3)cnn12 [I-891] |  | 
5 | > 12500 | < 50 | < 100 | < 0.2 | < 50 | CNc1cc(Nc2cccn3ccnc23)nc2c(C(=O)N[C@@H]3C[C@@H]3F)cnn12 [I-892] |  | 
6 | > 50000 | < 50 | < 100 | < 0.2 | < 50 | CNC(=O)c1nscc1Nc1cc(NC)n2ncc(C(=O)N[C@@H]3C[C@@H]3F)c2n1 [I-914] |  | 
7 | > 50000 | < 50 | < 100 | < 0.2 | < 50 | CNc1cc(Nc2cccn(C(C)C)c2=O)nc2c(C(=O)N[C@@H]3CC[C@H]3O)cnn12 [I-918] |  | 
8 | > 50000 | < 50 | < 100 | < 0.2 | < 50 | CNc1cc(Nc2cccn(C3CCCCC3)c2=O)nc2c(C(=O)N[C@@H]3CC[C@@H]3O)cnn12 [I-1000] |  | 
9 | > 50000 |  | < 100 | < 0.2 |  | CNc1cc(Nc2cccn(C3CCCCC3)c2=O)nc2c(C(=O)N[C@@H]3CC[C@H]3O)cnn12 [I-1002] | A (percent inhibition at 10 μM lower than 50) | A (percent inhibition at 10 μM lower than 50)

More lines, now with the values behind:

Row | SMILES | IC50 [1] [nM] | inhibition at 10 µM (Tyk2 kinase domain (DH1)) [%] | IC50 [2] [nM] | Kd [3] [nM] | inhibition at 10 µM (JAK2 kinase domain (JH1)) [%] | Tyk2 JH1% Inhibition @ 10 μM (Tyk2 kinase domain (DH1)) | JAK2 JH1% Inhibition @ 10 μM (JAK2 kinase domain (JH1))
10 | CNc1cc(Nc2cccc(-c3cn(C)nc3F)n2)nc2c(C(=O)N[C@@H]3C[C@@H]3F)cnn12 [I-860] | > 50000 | < 50 | < 100 | < 0.2 | < 50 |  | 
11 | CNc1cc(-c2cn(CCN3CCOCC3)c3ncccc23)nc2c(C(=O)N[C@H]3CC[C@@H]3OC)cnn12 [I-886] | > 300 | < 50 | < 100 | < 0.2 | < 50 |  | 
12 | CNc1cc(Nc2cc(Cl)cn(C3CCN(C)CC3)c2=O)nc2c(C(=O)N[C@@H]3CC[C@H]3O)cnn12 [I-930] | > 50000 | < 50 | < 100 | < 0.2 | < 50 |  | 
13 | CNc1cc(Nc2cccn([C@@H]3CCC[C@H](OC)C3)c2=O)nc2c(C(=O)NCC(C)(C)CO)cnn12 [I-951] | > 50000 | < 50 | < 100 | < 0.2 | < 50 |  | 
14 | CNc1cc(Nc2cccn([C@H]3CC[C@](C)(OC)CC3)c2=O)nc2c(C(=O)N[C@@H]3CC[C@H]3OC)cnn12 [I-959] | > 50000 |  | < 100 | < 0.2 |  | A (percent inhibition at 10 μM lower than 50) | A (percent inhibition at 10 μM lower than 50)
15 | CNc1cc(-c2cn(C3CC3)c3ncccc23)nc2c(C(=O)NC3CC3)cnn12 [I-960, N-cyclopropyl-5-(1-cyclopropyl-1H-pyrrolo[2,3-b]pyridin-3-yl)-7-(methylamino)pyrazolo[1,5-a]pyrimidine-3-carboxamide] | > 50000 | < 50 | < 100 | < 0.2 | < 50 |  | 
16 | CNc1cc(-c2cn(C3CC3)c3ncccc23)nc2c(C(=O)N[C@@H]3C[C@@H]3F)cnn12 [I-961, 5-(1-cyclopropyl-1H-pyrrolo[2,3-b]pyridine-3-yl)-N-((1R,2S)-2-fluorocyclopropyl)-7-(methylamino)pyrazolo[1,5-a]pyrimidine-3-carboxamide] | > 50000 | < 50 | < 100 | < 0.2 | < 50 |  | 
